{"source": "patent US9255118B2", "about": "“Light induced drug release” (UNIVERSITEIT LEIDEN, priority 2010, dated 2016)", "key": {"[1]": {"test": "Complex stability at human body temperature in the dark (1H NMR in D2O, 37° C.)", "format": "physicochemical", "settings": "for Conversion of Ru compounds into their aqua complexes: +37° C.", "protocol": "D2O (0.80 mL) was added to each of the NMR tubes and ^1H NMR spectra were taken. The NMR tubes were put into closed pressure tubes and kept in the dark at 37° C. to check the stability of the Ru—Cl and Ru—S bond. ^1H NMR spectra of each of the tubes were taken after 4 hours, 1 day, 3 days and 3 weeks. The NMR tubes were kept in an ice bath during transport in order to temporarily freeze the reaction. In the case of [Ru(terpy)(bpy)(Cl)](Cl), an equilibrium had been reached after four hours, characterized by 10% of [Ru(terpy)(bpy)(Cl)](Cl) and 90% of [Ru(terpy)(bpy)(H2O)](Cl)2.\nThe stability of the Ru—S bond was measured at human body temperature and in the dark. To do so, compound [Ru(tpy)(apy)Cl]Cl, and [Ru(tpy)(apy)(AMet)]Cl2, (compound [13](Cl)2) were dissolved in D2O and kept in the dark at 37° C. The release of the aqua species was measured by ^1H NMR after 4 hours, 1 days, and 3 weeks. […] The stability of the Ru—S bond depends on the nature of the polypyridyl ligands (see Example 2), but in general it is much higher than that of the Ru—Cl bond."}, "[2]": {"test": "Light-induced cleavage of the Ru-S bond in aqueous solution", "format": "physicochemical"}, "[3]": {"tested_on": "HepG2 cancer cells", "test": "WST-1 cell viability test in the dark", "format": "cell-based", "settings": "1.7 mM, 30 min in the dark, WST-1 normalized to protein content", "protocol": "HepG2 cancer cells were grown in RPMI 1640 medium containing (−) L-glutamine at 37° C. and in an atmosphere of […] and 5% CO2. […] In this experiment, the difference in water solubility between the chlorido and thioether complexes might also play a role, as uptake might be different for both compounds."}, "[4]": {"settings": "background statement; cited from earlier work"}, "[5]": {"settings": "37° C., equilibrium after four hours"}}}
{"compound": "[Ru(tpy)(apy)(AMet)]Cl2 [Compound [13](Cl)2]", "values": [{"measurement": "Conversion of Ru compounds into their aqua complexes", "setting": "[1]; 3 weeks", "value": 46, "unit": "%"}, {"measurement": "Conversion of Ru compounds into their aqua complexes", "setting": "[1]; 4 h", "value": "no sign of cleavage"}, {"measurement": "Conversion of Ru compounds into their aqua complexes", "setting": "[1]; 4 h, listed as [Ru(tpy)(apy)(AMet)](Cl)2", "value": 0, "unit": "%"}, {"measurement": "Conversion of Ru compounds into their aqua complexes", "setting": "[1]; 1 day", "value": 21, "unit": "%"}, {"measurement": "photochemical cleavage of the Ru-S bond", "setting": "[2]; visible light, D2O, 1H NMR and thin layer chromatography", "value": "photochemically labile"}]}
{"compound": "[Ru(terpy)(bpy)(Cl)](Cl)", "values": [{"measurement": "aqua complex [Ru(terpy)(bpy)(H2O)](Cl)2 at equilibrium", "setting": "[1]; [5]", "value": 90, "unit": "%"}, {"measurement": "starting chlorido complex at equilibrium", "setting": "[1]; [5]", "value": 10, "unit": "%"}, {"measurement": "cell survival reduced by", "setting": "[3]", "value": 49, "unit": "%"}]}
{"compound": "[Cl-].[Cl-].[Ru+2].c1ccc(N=Nc2ccccn2)cc1.c1ccc(N=Nc2ccccn2)cc1", "note": "[α-[Ru(azpy)2(Cl)2]]", "values": [{"measurement": "solubility in water", "setting": "[4]", "value": "poorly soluble in water"}]}
{"compound": "[Ru(terpy)(bpy)(D-biotin)](Cl)2 [Compound [7](Cl)2]", "values": [{"measurement": "cell survival reduced by", "setting": "[3]", "value": "not reduced"}]}
{"compound": "[Ru(terpy)(apy)(Cl)](Cl) [[Ru(tpy)(apy)(Cl)](Cl)]", "values": [{"measurement": "Conversion of Ru compounds into their aqua complexes", "setting": "[1]; 3 weeks", "value": 48, "unit": "%"}, {"measurement": "Conversion of Ru compounds into their aqua complexes", "setting": "[1]; 4 h", "value": 48, "unit": "%"}, {"measurement": "Conversion of Ru compounds into their aqua complexes", "setting": "[1]; 1 day", "value": 48, "unit": "%"}]}
{"compound": "[Cl-].[Cl-].[Cl-].[Ru+3].c1ccc(-c2cccc(-c3ccccn3)n2)nc1", "note": "[mer-[Ru(terpy)(Cl)3]]", "values": [{"measurement": "solubility in water", "setting": "[4]", "value": "poorly soluble in water"}]}
{"compound": "[Ru(terpy)(bpy)(mte)](BF4)2 [Compound [9](BF4)2]", "values": [{"measurement": "photosubstitution of the monodentate sulfur ligand", "setting": "[2]; white light, aqueous solution", "value": "photosubstituted by an aqua ligand"}]}
